We go through 1 molecule from US20260262652A1, “INSECT DAMAGE INHIBITOR, METHOD FOR USING RESIN COMPOSITION, CULTIVATION METHOD, POTTING SOIL, AND METHOD FOR IMPROVING SOIL” (ARAKAWA CHEMICAL INDUSTRIES, LTD., priority 2023, published 2026).

The subject of the assay is two-spotted spider mites. The assay can be described thus: Test 2: spraying onto two-spotted spider mites on kidney bean seedlings, count of mites (pest reproduction inhibition effect). Format: in vivo, Tetranychus urticae. To be noted: ten female adults inoculated on kidney bean seedlings, (A1) as 1% solution, average of pots. On the procedure:
Ten female adult two-spotted spider mites were inoculated onto ‘Naga-uzura’ kidney bean seedlings (14 days after germination) grown in plastic pots, and an ethanol solution of the component (A1) was further diluted 10-fold with deionized water, and the resulting 1% solution was sprayed onto the spider mites. Two additional pots with similarly grown kidney bean seedlings were prepared. On the 2nd, 4th, 9th, 13th, and 17th days after spraying, the total number of two-spotted spider mites on the adaxial surface, abaxial surface, and true leaves of the kidney beans in each pot was counted, and the average value was calculated. The test was conducted in the same manner for the component (A3)′.

For the molecule `CCO` [(A3)′, ethanol], the “Number of two-spotted spider mites (Average) Day 2” value (Day 2 after spraying) was 9. The “Number of two-spotted spider mites (Average) Day 4” value (Day 4 after spraying) worked out at 8. Moreover, where the note is “Day 9 after spraying”, the “Number of two-spotted spider mites (Average) Day 9” value turned out to be 287. Further, the “Number of two-spotted spider mites (Average) Day 13” value (Day 13 after spraying) is reported as 564. Moreover, where the note is “Day 17 after spraying”, the “Number of two-spotted spider mites (Average) Day 17” value was determined as 924.
